This note sets out measurements from US8748412B2, “Phenylalanine derivatives and their use as non-peptide GLP-1 receptor modulators” (Argusina Bioscience Inc., priority 2011, dated 2014).

The structures appear in SMILES notation. A value given as a limit tells only on which side of the number the result lay.

In one test the target is T1, human GLP1R (Homo sapiens, UniProt P43220).
T1 construct: expressed in transfected cells; host or cells: CHO cells (ATCC), transient transfection with pCMV-human GLP1R
T1 sequence (P43220 24-463): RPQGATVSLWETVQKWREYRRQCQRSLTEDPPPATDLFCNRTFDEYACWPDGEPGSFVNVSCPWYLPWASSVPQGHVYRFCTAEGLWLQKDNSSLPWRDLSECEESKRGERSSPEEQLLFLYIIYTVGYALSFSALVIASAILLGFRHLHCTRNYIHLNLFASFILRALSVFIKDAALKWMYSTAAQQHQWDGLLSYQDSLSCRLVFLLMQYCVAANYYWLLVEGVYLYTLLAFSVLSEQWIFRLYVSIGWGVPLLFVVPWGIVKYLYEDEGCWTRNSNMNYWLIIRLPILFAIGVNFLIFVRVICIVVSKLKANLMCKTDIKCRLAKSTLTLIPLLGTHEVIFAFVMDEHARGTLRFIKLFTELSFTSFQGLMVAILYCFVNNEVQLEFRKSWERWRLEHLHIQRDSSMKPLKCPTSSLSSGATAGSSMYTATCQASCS
In words: Human GLP-1 receptor transfected cell assay (MRE/CRE-luciferase reporter gene, agonist activity). To be noted: 6 h; concentration 1 μM; read-out: Activity (agonist), percentage of the activity of the control. The class given is cell-based. The procedure:
The glucagon-like peptide I receptor (GLP1R) is a class B Gs-coupled membrane receptor, an agonist of which activates adenylate cyclase (AC) and elevates intracellular cAMP level. In turn, the high content of secondary messengers can activate the cAMP response element binding protein (CREB), which can translocate into nucleus to activate gene transcription.
A reporter gene based screening assay was established to measure the effect of a compound on GLP1R. In this assay, a compound was incubated with CHO cells transiently transfected with a human GLP1R plasmid and a multiple response element (MRE)/cAMP response element (CRE)-driven luciferase reporter plasmid. Once luciferase was induced by the compound, its specific substrate can be activated to produce light signal for measurement.
Materials used in this assay included: (i) cell line: Chinese hamster ovary (CHO) cells (ATCC); (ii) fetal bovine serum (FBS) (Biochrom Co.); (iii) culture medium: RPMI1640 (Invitrogen Co.) supplemented with 10% FBS; (iv) LIPOFECTAMINE™ 2000 Reagent (Invitrogen Co.); (v) plasmids: pCMV-human GLP1R and pGL3-1905 reporter plasmid; (vi) GLP1 (7-36 amide) peptide (Sigma Co.); and (vii) BRIGHT-GLO™ Luciferase Assay System (Promega Co.).
Instruments used in this assay included: (i) Form a carbon dioxide incubator (Thermo Form a Co.); and (ii) Flexstation 3 (Molecular Device Co.).
Before transfection, CHO cells were plated into a 6-well culture plate at 800,000/2 mL/well, and cultured at 37° C. in 5% CO2 overnight. On the transfection day, cells were transfected with receptor plasmid and reporter plasmid using LIPOFECTAMINE™ 2000 reagent. After 6-hour transfection, cells were digested and seeded into 96-well plates at 20,000/100 μL/well. After 14-16 hour incubation, transfected cells were washed with 100 μL serum-free RPMII 640 medium first, and then added 50 μL of the culture medium. The GLP-1 standard and test compounds were respectively diluted to a series of concentrations, which were then added into the above 96-well culture plate at 50 μL/well. The cells were incubated at 37° C. in 5% CO2 for 6 hrs. The activity of luciferase was detected using BRIGHT-GLO™ Luciferase Analytic System, and the reading was performed with a Flexstation3 plate reader machine.
For orientation: In a reporter assay the amount or activity of a reporter protein is the signal.
Turning to `Cc1cccc(CN2CCN(S(=O)(=O)NC(Cc3ccc(-c4noc(-c5ccc(NC(=O)OC(C)(C)C)cc5)n4)c(F)c3)C(=O)O)CC2)c1` (stereo not drawn) [Compound 4C], the activation at 1 µM was > 60%. As for `Cc1ccc(N2CCN(C(=O)NC(Cc3ccc(-c4noc(-c5ccc(NC(=O)OC(C)(C)C)cc5)n4)c(F)c3)C(=O)O)CC2)cc1` (stereo not drawn) [Compound 4D], the activation at 1 µM is > 60%.

With `CC(C)(C)OC(=O)Nc1ccc(-c2nc(-c3ccc(CC(NC(=O)N4CCN(c5ccc(Cl)cc5)CC4)C(=O)O)cc3F)no2)cc1` (stereo not drawn) [Compound 4K], the activation at 1 µM is > 60%. Consider `CC(C)(C)OC(=O)Nc1ccc(-c2nc(-c3ccc(CC(NC(=O)Nc4cc(-c5ccc(F)cc5)on4)C(=O)O)cc3F)no2)cc1` (stereo not drawn) [Compound 4S], for which the activation at 1 µM is 40 to 60%. In the case of `Cc1ccc(-c2ccc(NC(=O)NC(Cc3ccc(-c4noc(-c5ccc(NC(=O)OC(C)(C)C)cc5)n4)c(F)c3)C(=O)O)nc2)cc1` (stereo not drawn) [Compound 4T], the activation at 1 µM lay in the range of 40 to 60%. For the molecule `CC(C)(C)OC(=O)Nc1ccc(-c2nc(-c3ccc(CC(NC(=O)Cc4ccc(-c5ccc(C(F)(F)F)cc5)cc4)C(=O)O)cc3F)no2)cc1` (stereo not drawn) [Compound 5I], the activation at 1 µM was > 60%.

For `Cc1ccc(-c2cccc(C(=O)NC(Cc3ccc(-c4noc(-c5ccc(NC(=O)OC(C)(C)C)cc5)n4)nc3)C(=O)O)c2)cc1` (stereo not drawn) [Compound 5K], the activation at 1 µM was > 60%. In the case of `Cc1ccc(-c2ccc(C(=O)NC(Cc3ccc(-c4noc(-c5ccc(NC(=O)OC(C)(C)C)cc5)n4)c(F)c3F)C(=O)O)o2)cc1F` (stereo not drawn) [Compound 5M], the activation at 1 µM is > 60%.

The same test, now with this note: 6 h; concentration 3 μM; read-out: Activity (agonist), percentage of the activity of the control.
Consider `Cc1ccc(CN2CCN(S(=O)(=O)NC(Cc3ccc(-c4noc(-c5ccc(NC(=O)OC(C)(C)C)cc5)n4)c(F)c3)C(=O)O)CC2)cc1` (stereo not drawn) [Compound 3X, 3-{4-[5-(4-tert-Butoxycarbonylamino-phenyl)-[1,2,4]oxadiazol-3-yl]-3-fluoro-phenyl}-2-[4-(4-methyl-benzyl)-piperazine-1-sulfonylamino]-propionic acid], for which the activation at 3 µM was > 60%.

For `Cc1ccc(N2CCN(S(=O)(=O)NC(Cc3ccc(-c4noc(-c5ccc(NC(=O)OC(C)(C)C)cc5)n4)c(F)c3)C(=O)O)CC2)cc1` (stereo not drawn) [Compound 3Z], the activation at 3 µM is > 60%. As for `CC(C)(C)OC(=O)Nc1ccc(C#Cc2ccc(CC(NC(=O)c3cccc(-c4ccc(Cl)cc4)c3)C(=O)O)cc2F)cc1` (stereo not drawn) [Compound 4E], the activation at 3 µM is 20 to 40%.

Turning to `Cc1cccnc1N1CCCN(C(=O)NC(Cc2ccc(-c3noc(-c4ccc(NC(=O)OC(C)(C)C)cc4)n3)c(F)c2)C(=O)O)CC1` (stereo not drawn) [Compound 4R], the activation at 3 µM was 20 to 40%. `CC(C)(C)OC(=O)Nc1ccc(-c2nc(-c3ccc(CC(NC(=O)Nc4ccc(C#N)cc4)C(=O)O)cc3F)no2)cc1` (stereo not drawn) [Compound 4U]: the activation at 3 µM lay in the range of 40 to 60%. Take `CC(C)(C)OC(=O)Nc1ccc(-c2nc(-c3ccc(CC(NC(=O)Nc4ccc(C(C)(C)C)cc4)C(=O)O)cc3F)no2)cc1` (stereo not drawn) [Compound 4V]: the activation at 3 µM was 40 to 60%. On to `CC(C)(C)OC(=O)Nc1ccc(-c2nc(-c3ccc(CC(NC(=O)Nc4ccc(N5CCCCC5)cc4)C(=O)O)cc3F)no2)cc1` (stereo not drawn) [Compound 4Y], for which the activation at 3 µM was in the range of 20 to 40%. Consider `Cc1ccc(-c2cccc(NC(=O)NC(Cc3ccc(-c4noc(-c5ccc(NC(=O)OC(C)(C)C)cc5)n4)c(F)c3)C(=O)O)c2)cc1` (stereo not drawn) [Compound 5A], for which the activation at 3 µM fell in the range of 40 to 60%. The same measure, in the same setting: as for `Cn1nc(C(C)(C)C)cc1NC(=O)NC(Cc1ccc(-c2noc(-c3ccc(NC(=O)OC(C)(C)C)cc3)n2)c(F)c1)C(=O)O` (stereo not drawn) [Compound 5B], the figure is 40 to 60%; as for `CC(C)(C)OC(=O)Nc1ccc(-c2nc(-c3ccc(CC(NC(=O)Nc4ccc(-c5ccccc5F)cn4)C(=O)O)cc3F)no2)cc1` (stereo not drawn) [Compound 5C], > 60%.

With `CC(C)(C)OC(=O)Nc1ccc(-c2nc(-c3ccc(CC(NC(=O)N4CCC(c5ccccc5)C4)C(=O)O)cc3F)no2)cc1` (stereo not drawn) [Compound 5D], the activation at 3 µM is > 60%.

Still in this test, the particulars now being: 6 h; concentration 3.16 μM; read-out: Activity (agonist), percentage of the activity of the control.
Take `CC(C)(C)OC(=O)Nc1ccc(-c2nc(-c3ccc(CC(NS(=O)(=O)N4CCN(c5ccccc5F)CC4)C(=O)O)cc3F)no2)cc1` (stereo not drawn) [Compound 4B]: the activation at 3.16 µM is 40 to 60%. Turning to `CC(C)(C)OC(=O)Nc1ccc(-c2nc(-c3ccc(CC(NC(=O)N4CCN(C(=O)OC(C)(C)C)CC4)C(=O)O)cc3F)no2)cc1` (stereo not drawn) [Compound 4F], the activation at 3.16 µM lay in the range of 40 to 60%.

On to `CC(C)(C)OC(=O)Nc1ccc(-c2nc(-c3ccc(CC(NC(=O)Nc4cc(-c5ccccc5)n[nH]4)C(=O)O)cc3F)no2)cc1` (stereo not drawn) [Compound 4G], for which the activation at 3.16 µM was > 60%. On to `CC(C)(C)OC(=O)Nc1ccc(-c2nc(-c3ccc(CC(NC(=O)Nc4ccncc4)C(=O)O)cc3F)no2)cc1` (stereo not drawn) [Compound 4H], for which the activation at 3.16 µM is > 60%. Regarding `CC(C)(C)OC(=O)Nc1ccc(-c2nc(-c3ccc(CC(NC(=O)Nc4cc(-c5ccc(Cl)cc5)n[nH]4)C(=O)O)cc3F)no2)cc1` (stereo not drawn) [Compound 4I], the activation at 3.16 µM is > 60%. The same measure, in the same setting: the figure for `COc1ccc(N2CCN(C(=O)NC(Cc3ccc(-c4noc(-c5ccc(NC(=O)OC(C)(C)C)cc5)n4)c(F)c3)C(=O)O)CC2)cc1` (stereo not drawn) [Compound 4J] is 40 to 60%; for `CC(C)(C)OC(=O)Nc1ccc(-c2nc(-c3ccc(CC(NC(=O)Nc4ccnc(Cl)c4)C(=O)O)cc3F)no2)cc1` (stereo not drawn) [Compound 4L] it is 40 to 60%; for `Cc1ccc(NC(=O)NC(Cc2ccc(-c3noc(-c4ccc(NC(=O)OC(C)(C)C)cc4)n3)c(F)c2)C(=O)O)cc1` (stereo not drawn) [Compound 4M] it is > 60%.

For `CC(C)(C)OC(=O)Nc1ccc(-c2nc(-c3ccc(CC(NC(=O)Nc4ccc(Br)nc4)C(=O)O)cc3F)no2)cc1` (stereo not drawn) [Compound 4N], the activation at 3.16 µM was 20 to 40%. On the same count and under the same terms, as for `CC(C)(C)OC(=O)Nc1ccc(-c2nc(-c3ccc(CC(NC(=O)N4CCCN(c5ccc(F)cn5)CC4)C(=O)O)cc3F)no2)cc1` (stereo not drawn) [Compound 4Q], the figure is > 60%. On to `Cc1ccc(-c2ccc(C(=O)NC(Cc3ccc(-c4noc(-c5ccc(NC(=O)OC(C)(C)C)cc5)n4)cc3C(F)(F)F)C(=O)O)o2)cc1` (stereo not drawn) [Compound 5J], for which the activation at 3.16 µM is > 60%.

Still in this test, the particulars now being: 6 h; concentration 5 μM; read-out: Activity (agonist), percentage of the activity of the control.
On to `Cc1ccc(N2CCN(CC(=O)NC(Cc3ccc(-c4noc(-c5ccc(NC(=O)OC(C)(C)C)cc5)n4)c(F)c3)C(=O)O)CC2)cc1` (stereo not drawn) [Compound 5H], for which the activation at 5 µM is > 60%.

Staying with this test, now noted: 6 h; concentration 10 μM; read-out: Activity (agonist), percentage of the activity of the control.
For the molecule `CC(C)(C)OC(=O)Nc1ccc(-c2nc(-c3ccc(CC(NS(=O)(=O)N4CCN(c5ccc(C(F)(F)F)cc5)CC4)C(=O)O)cc3F)no2)cc1` (stereo not drawn) [Compound 3Y], the activation at 10 µM was > 60%.

As to `CC(C)(C)OC(=O)Nc1ccc(-c2nc(-c3ccc(CC(NS(=O)(=O)N4CCN(c5ccc(Cl)cc5)CC4)C(=O)O)cc3F)no2)cc1` (stereo not drawn) [Compound 4A], the activation at 10 µM was in the range of 40 to 60%. As to `Cc1ccc(-c2ccc(NC(=O)NC(Cc3ccc(-c4noc(-c5ccc(NC(=O)OC(C)(C)C)cc5)n4)c(F)c3)C(=O)O)cn2)cc1` (stereo not drawn) [Compound 4O], the activation at 10 µM is > 60%. As to `CC(C)(C)OC(=O)Nc1ccc(-c2nc(-c3ccc(CC(NC(=O)N4CCCN(c5ccc(C#N)cc5)CC4)C(=O)O)cc3F)no2)cc1` (stereo not drawn) [Compound 4P], the activation at 10 µM was > 60%. In the case of `CC(C)c1ccc(NC(=O)NC(Cc2ccc(-c3noc(-c4ccc(NC(=O)OC(C)(C)C)cc4)n3)c(F)c2)C(=O)O)cc1` (stereo not drawn) [Compound 4W], the activation at 10 µM was in the range of 40 to 60%. For the molecule `CC(C)(C)OC(=O)Nc1ccc(-c2nc(-c3ccc(CC(NC(=O)Nc4ccc(-c5ccc(F)cc5)cn4)C(=O)O)cc3F)no2)cc1` (stereo not drawn) [Compound 4X], the activation at 10 µM is > 60%. For the molecule `Cc1ccc(-c2ccc(NC(=O)NC(Cc3ccc(-c4noc(-c5ccc(NC(=O)OC(C)(C)C)cc5)n4)c(F)c3)C(=O)O)nc2)cc1Cl` (stereo not drawn) [Compound 4Z], the activation at 10 µM fell in the range of 40 to 60%. On the same count and under the same terms, the figure for `Cc1ccc(-c2ccc(C(=O)NC(Cc3ccc(C#Cc4ccc(NC(=O)OC(C)(C)C)cc4)c(F)c3)C(=O)O)o2)cc1` (stereo not drawn) [Compound 5E] is > 60%; for `Cc1ccc(-c2ccc(NC(=O)NC(Cc3ccc(-c4noc(-c5ccc(NC(=O)OC(C)(C)C)cc5)n4)c(F)c3)C(=O)O)nc2)cc1F` (stereo not drawn) [Compound 5F] it is > 60%. For the molecule `CC(=O)N(Cc1ccc(-c2ccc(C)cc2)o1)C(Cc1ccc(-c2noc(-c3ccc(NC(=O)OC(C)(C)C)cc3)n2)c(F)c1)C(=O)O` (stereo not drawn) [Compound 5G], the activation at 10 µM was > 60%. As for `Cc1ccc(-c2ccc(C(=O)NC(Cc3cc(F)c(-c4noc(-c5ccc(NC(=O)OC(C)(C)C)cc5)n4)c(F)c3)C(=O)O)o2)cc1` (stereo not drawn) [Compound 5L], the activation at 10 µM was > 60%.
